Source: patent US12274785B2, “Sustained-release pharmaceutical compositions comprising an immunomodulating agent and uses thereof” (TAIWAN LIPOSOME CO., LTD., priority 2018, dated 2025)
Structures can show the parent of a compound that is named as a salt. Each block holds one compound with its values, some of them ahead of it.

Columns and labels:
[1] = Drug loading of liposomes: drug to lipid molar ratio and encapsulation efficiency (UV/Vis); assay type: physicochemical; conditions: fingolimod; HSPC/cholesterol/DPPG (59.5/39.6/0.9); trapping agent 2: 300 mM ammonium sulfate
[2] = as above; assay type: physicochemical
Description: (§1) Empty liposomes were prepared by a lipid film hydration-extrusion method. HSPC, cholesterol, and DSPE-PEG2000 (mole percent 59.5/39.6/0.9) were dissolved in chloroform and a thin lipid film was formed by removing the organic solvent under vacuum in a rotary evaporator. The dry lipid film was hydrated in 300 mM ammonium sulfate at 60° C. for 30 min and the empty liposomes were formed with ammonium sulfate encapsulated in the aqueous core. After six freeze-thaw cycles between liquid nitrogen and water at 60° C., the empty liposomes were subsequently extruded ten times through polycarbonate filter membranes with a pore size of 0.2 μm. Unencapsulated ammonium sulfate was removed by dialysis against a 9.4% sucrose solution.
(§2) A reaction mixture containing 7.8 mg/mL of fingolimod hydrochloride (MedChem Express), 20.7 mM of lipids of empty liposomes and 50 mM histidine buffer (pH 7) was incubated at 60° C. for 15 min. The unencapsulated fingolimod hydrochloride was separated by a Sephadex™ G-50 Fine gel (GE Healthcare) or dialysis bag (Spectrum Labs) against a 9.4% sucrose solution to obtain the liposomal fingolimod formulation. The concentrations of the encapsulated fingolimod hydrochloride and the lipid of the liposomal fingolimod formulation were measured using an ultraviolet/visible (UV/Vis) spectrophotometer to calculate the drug to lipid molar ratio (D/L) of the liposomal fingolimod formulation.
(§3) The encapsulation efficiency was calculated by the drug to lipid molar ratio (D/L) of the fingolimod hydrochloride encapsulated liposomes compared to the nominal D/L of reaction mixture, which was calculated by dividing the concentration of fingolimod hydrochloride by the lipid concentration of empty liposome. The particle size distribution was measured by a dynamic light scattering instrument (Zetasizer Nano-ZS90, Malvern).
as §1, with “DPPG” for “DSPE-PEG2000”
as §2, with “7.2” for “7.8”, “ozanimod (DC Chemicals), 20.6” for “fingolimod hydrochloride (MedChem Express), 20.7”, “6.5)” for “7)”, “ozanimod” for “fingolimod hydrochloride”, “ozanimod” for “fingolimod”
as §3, with “ozanimod” for “fingolimod hydrochloride”
The liposome formulations were prepared according to Example 1, with the following trapping agents: (1) 75 mM of triethylammonium sucrose octasulfate, (2) 300 mM of ammonium sulfate, (3) 200 mM ammonium phosphate and (4) 7.0 mM of dextran sulfate.

[3] = In vitro release through dialysis bag with fetal bovine serum; assay type: physicochemical; conditions: fetal bovine serum mixture, PBS pH 7.4 with 0.06N HCl, 37 °C
Description: To setup an in vitro release system, 0.5 mL of liposomal fingolimod formulation prepared according to Example 1 and 0.5 mL of free fingolimod hydrochloride were each mixed with 0.5 mL of fetal bovine serum. The free fingolimod/serum mixture and liposomal fingolimod/serum mixture were placed in separate dialysis bags (Spectra/Pro®6 dialysis membrane, MWCO 50 kDa, Spectrum Labs) and both ends of the dialysis bags were sealed. Each dialysis bag was immersed in 15 mL PBS at pH 7.4, containing 0.06N HCl, in a 50-mL centrifuge tube and incubated at 37±1° C. water bath. At designated time points after incubation (1, 2, 4, 8 and 24 hours), 0.5 mL aliquot from the 15-mL PBS was sampled and 0.5 mL of fresh PBS was added to replenish the sampling aliquot each time. Drug concentrations of the sampling aliquots at each time point were analyzed using HPLC to create the in vitro release profile of the tested formulations.

[4] = Pharmacokinetics study of liposomal fingolimod in rats; assay type: in vivo, Sprague-Dawley rats; conditions: IV 5 mg/Kg
Description: An in vivo PK evaluation of the liposomal fingolimod formulation was performed using 7- to 8-week-old female Sprague-Dawley rats. The rats were housed in a holding room which operated on a 12-hr light/12-hr dark circadian cycle with free access to water and food.
The rats were divided into three groups (n=4 in each group), one group received intravenous (IV) injection of 5 mg/Kg of free fingolimod hydrochloride, prepared by dissolving the fingolimod hydrochloride in a 9.4% sucrose solution containing 5% dimethyl sulfoxide with a final concentration of 2.00 mg/mL. The second group received intravenous (IV) injection of 5 mg/Kg of liposomal fingolimod formulation prepared according to Example 1. The third group received subcutaneous (SC) injection of 5 mg/Kg of liposomal fingolimod formulation prepared according to Example 1. Blood samples were collected at 5, 15 min, 1, 2, 4, 8, 24, 48, 72, and 96 hours post-injection. Plasma samples were obtained by centrifugation, kept frozen at -80° C. and analyzed using a noncompartmental analysis model in PKSolver (Comput. Methods Programs Biomed. 2010; 99(3):306-314).

[5] = Particle size distribution by dynamic light scattering; assay type: physicochemical
Description: as §3
as §3, with “ozanimod” for “fingolimod hydrochloride”

[6] = DMPC/cholesterol/DSPE-PEG2000 (59.5/40/0.5), trapping agent 2: 300 mM ammonium sulfate
[7] = DPPC/cholesterol/DSPE-PEG2000 (55.9/38.7/5.4), trapping agent 3: 200 mM ammonium phosphate
[8] = HSPC/cholesterol/DSPE-PEG2000 (59.5/39.6/0.9), trapping agent 1: 75 mM triethylammonium sucrose octasulfate
[9] = HSPC/cholesterol/DSPE-PEG2000 (59.5/39.6/0.9), trapping agent 2: 300 mM ammonium sulfate
[10] = DSPC/cholesterol/DSPE-PEG2000 (59.5/39.6/0.9), trapping agent 4: 7.0 mM dextran sulfate
[11] = HSPC/cholesterol (60/40), trapping agent 1: 75 mM triethylammonium sucrose octasulfate
[12] = ozanimod, HSPC/cholesterol/DPPG (59.5/39.6/0.9), trapping agent 2: 300 mM ammonium sulfate

Encapsulation Efficiency [1]: 100% | Purified D/L [1]: 1.01 mole/mole | Encapsulation Efficiency [2, 6]: 100% | Purified D/L [2, 6]: 1.13 mole/mole | Encapsulation Efficiency [2, 7]: 99% | Purified D/L [2, 7]: 0.88 mole/mole | Encapsulation Efficiency [2, 8]: 100% | Purified D/L [2, 8]: 1.28 mole/mole | Encapsulation Efficiency [2, 9]: 100% | Purified D/L [2, 9]: 1.11 mole/mole | fingolimod released through the dialysis bag within 4 hours ([3]; 4 hours): ~80% | release through the dialysis bag over 24 hours ([3]; 24 hours): > 80% | time after which eliminated from the circulation [4]: about 70 hours | AUC0-t/AUC0-inf ratio ([4]; 96 hours post-injection): approximately 100% | Average Particle Size [5, 6]: 154.5 nm | Average Particle Size [5, 7]: 143.1 nm | Average Particle Size [5, 8]: 288.0 nm | Average Particle Size [5, 9]: 162.1 nm | Average Particle Size ([5]; fingolimod, HSPC/cholesterol/DPPG (59.5/39.6/0.9), trapping agent 2: 300 mM ammonium sulfate): 191.4 nm
Compound: CCCCCCCCc1ccc(CCC(N)(CO)CO)cc1 [Fingolimod HCl, fingolimod hydrochloride]

Encapsulation Efficiency [2, 10]: 79% | Purified D/L [2, 10]: 0.35 mole/mole | Encapsulation Efficiency [2, 11]: 100% | Purified D/L [2, 11]: 0.49 mole/mole | Encapsulation Efficiency [2, 12]: 100% | Purified D/L [2, 12]: 0.87 mole/mole | Average Particle Size [5, 10]: 364.2 nm | Average Particle Size [5, 11]: 215.2 nm | Average Particle Size [5, 12]: 186.7 nm
Compound: CC(C)Oc1ccc(-c2nc(-c3cccc4c3CC[C@@H]4NCCO)no2)cc1C#N [Ozanimod, ozanimod]
